# Experimental data: patent US7285564B2, “Substituted 4-amino-1-(pyridylmethyl)piperidine and related compounds” (Theravance, Inc., priority 2002, dated 2007)
# pKi: −log10 of the molar value.
# Experiments:
# [1] = target: T1, hM2 muscarinic receptor subtype (Homo sapiens, UniProt P08172); experiment: Radioligand binding assay ([3H]NMS displacement), hM2; conditions: [3H]NMS at 1 nM; membranes of CHO cells expressing hM2
# T1 construct: expressed in transfected cells; membranes prepared
# T1 sequence (P08172 1-466): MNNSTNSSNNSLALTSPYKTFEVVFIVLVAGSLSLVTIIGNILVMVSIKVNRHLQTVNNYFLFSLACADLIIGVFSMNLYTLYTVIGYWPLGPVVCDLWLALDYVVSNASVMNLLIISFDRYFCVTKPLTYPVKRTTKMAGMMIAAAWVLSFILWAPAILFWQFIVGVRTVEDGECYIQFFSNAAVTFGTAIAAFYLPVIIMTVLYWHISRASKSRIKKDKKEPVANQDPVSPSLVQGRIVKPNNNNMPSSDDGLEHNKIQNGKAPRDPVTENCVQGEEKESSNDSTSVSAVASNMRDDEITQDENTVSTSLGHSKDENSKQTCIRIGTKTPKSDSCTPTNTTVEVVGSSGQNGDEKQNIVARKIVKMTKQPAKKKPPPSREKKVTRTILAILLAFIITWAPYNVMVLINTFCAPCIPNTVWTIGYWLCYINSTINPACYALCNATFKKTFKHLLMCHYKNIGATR
# Method: (§1) CHO (Chinese hamster ovary) cell lines stably expressing cloned human hM1, hM2, hM3 and hM4 muscarinic receptor subtypes, respectively, were grown to near confluency in medium consisting of HAM's F-12 supplemented with 10% FBS (Fetal Bovine Serum) and 250 μg/mL Geneticin. The cells were grown in a 5% CO2, 37° C. incubator and lifted with dPBS+2 mM EDTA. Cells were collected by 5 minute centrifugation at 650×g, and cell pellets were either stored frozen at −80° C. or membranes were prepared immediately. For membrane preparation, cell pellets were resuspended in lysis buffer and homogenized with a Polytron PT-2100 tissue disrupter (Kinematica AG; 20 seconds×2 bursts). Crude membranes were centrifuged at 40,000×g for 15 minutes at 4° C. […] Protein concentration of the membrane suspension was determined by the method of Lowry, O. et al., (1951) […]: 193, 265. […]
# (§2) Radioligand binding assays were performed in 96-well microtiter plates in a total assay volume of 100 μL. […] Filter plates were rinsed three times with wash buffer (10 mM HEPES) to remove unbound radioactivity. […] The plates were then counted in a PerkinElmer Topcount liquid scintillation counter (PerkinElmer Inc., Wellesley, Mass.). Binding data were analyzed by nonlinear regression analysis with the GraphPad Prism Software package (GraphPad Software, Inc., San Diego, Calif.) using the one-site competition model. […]
# [2] = target: T2, hM3 muscarinic receptor subtype (Homo sapiens, UniProt P20309); experiment: Radioligand binding assay, hM3 relative to hM2; conditions: ratio of Ki values from radioligand displacement
# T2 construct: expressed in transfected cells; membranes prepared
# T2 sequence (P20309 whole entry): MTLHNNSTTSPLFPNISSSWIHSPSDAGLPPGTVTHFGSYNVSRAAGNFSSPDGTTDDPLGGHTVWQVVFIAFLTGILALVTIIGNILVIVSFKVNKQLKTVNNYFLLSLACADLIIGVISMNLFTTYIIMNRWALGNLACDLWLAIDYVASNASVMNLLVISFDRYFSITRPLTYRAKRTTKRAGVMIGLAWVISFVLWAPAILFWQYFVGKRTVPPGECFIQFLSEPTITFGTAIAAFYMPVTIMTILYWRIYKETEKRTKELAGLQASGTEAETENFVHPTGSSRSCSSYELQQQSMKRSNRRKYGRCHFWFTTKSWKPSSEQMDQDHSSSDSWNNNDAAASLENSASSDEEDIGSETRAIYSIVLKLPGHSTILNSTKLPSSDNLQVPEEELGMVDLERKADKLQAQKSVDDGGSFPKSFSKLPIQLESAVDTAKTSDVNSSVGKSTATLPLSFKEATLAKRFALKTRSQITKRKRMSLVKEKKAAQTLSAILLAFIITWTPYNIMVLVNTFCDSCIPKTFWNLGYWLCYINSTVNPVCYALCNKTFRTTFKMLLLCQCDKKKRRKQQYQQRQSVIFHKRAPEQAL
# Method: as §1, §2
# [3] = test system: oxotremorine-induced salivation; experiment: In vivo rat salivation assay
# Method: Female Sprague-Dawley rats weighing 200 to 300 g were anesthetized with urethane (1.5 g/kg, s.c., Sigma, St. Louis, Mo.), with a supplement of 0.25 g/kg, s.c. urethane as needed. Urethane was administered at a concentration of 0.25 g/mL.
# Rats were placed on a heated blanket on their dorsal side in an inclined position (20° angle) position (head down). A swab was placed in the rat's mouth. The test compound or vehicle was administered intravenously via the tail vein. After 5 min., oxotremorine (1.0 mg/kg) was administered subcutaneously. The swab was discarded and
# Replaced by a pre-weighed swab. Saliva was then collected for 10 min. and then the swab was removed and re-weighed to determine the output of saliva. Dose-response curves were fitted with a four parameter logistic equation to obtain estimates of ID50 (dose required to produce 50% of the maximal response).
# By comparing the ID50 values determined in the rat bladder assay and rat salivation assay, the in vivo bladder/salivation selectivity ratio was calculated for the compounds tested.
compound,measurement,setting,value
COc1ccncc1CN1CCC(N(CCCCCCCN2CC[C@@H](C(C(N)=O)(c3ccccc3)c3ccccc3)C2)C(C)C)CC1 [Example 1],pKi,[1],> 9.00
same,hM3/hM2 ratio,[2],greater than 40
same,ID50 (salivation),"[3]; intravenous, anesthetized female Sprague-Dawley rats, oxotremorine 1.0 mg/kg s.c.",greater than or equal to 0.9 mg/kg
same,ID50 bladder/salivation selectivity ratio,[3]; rat bladder assay vs rat salivation assay,greater than 20
